Assays:
[1] = system: SW480 cells; test: MTT assay, SW480; format: cell-based, human; details: 50% growth inhibition
Protocol: (§1) As a first step in assessing their cytotoxic properties, all thioureas of the series were assayed against four human carcinoma cell lines, such as SW480 (primary colon cancer), SW620 (metastatic colon cancer), PC3 (metastatic prostate cancer), and K-562 (chronic myelogenous leukemia), as well as against the normal cell line HaCaT (immortalized human keratinocytes). Table 1 lists the compound concentrations that produced 50% of growth inhibition (IC50, μM), generated by the MTT method, in comparison with two commonly used chemotherapeutic agents, doxorubicin and cisplatin.
(§2) The human primary (SW480), metastatic (SW620) colon cancer, metastatic prostate cancer (PC3), chronic myelogenous leukemia (K-562), and human immortal keratinocyte (HaCaT) cell lines were purchased from the American Type Culture Collection (ATCC, Rockville, MD, USA). The cells were cultured in medium according to protocols (MEM for SW480 and SW620, RPMI 1640 for PC3 and K-562, and DMEM for HaCaT cells), supplemented with 10% FBS, penicillin (100 U/mL) and streptomycin (100 μg/mL), and cultured in a 37 °C/5% CO2 humidified incubator. The cells were cultured until appropriate confluence was achieved (80–90%). Next, they were harvested by treatment with 0.25% trypsin (Gibco Life Technologies, Waltham, MA, USA) excluding the non-adherent K-562 cell line and used for studies.
(§3) Cells without the studied compounds in medium were used as a control.
(§4) The cell viability was assessed by determination of MTT salt [3-(4,5-dimethylthiazol-2-yl)-2,5-diphenyltetrazoliumbromide] conversion by mitochondrial dehydrogenase. The MTT assay was performed as previously described. Alternatively, non-adherent leukemic cells were centrifuged in a microplate centrifuge (400× g, 5 min) during the collection stages. Experiments were repeated three times. Cell viability was presented as a percent of MTT reduction in the treated cells versus the control cells. The number of viable cells cultured without the studied compounds was assumed as 100%. A decreased relative MTT level indicated decreased cell viability. Thiourea compounds with the highest cytotoxic potential assessed by MTT determination (with the lowest IC50) were chosen for subsequent assessments of cytotoxicity mechanisms.

[2] = system: SW620 cells; test: MTT assay, SW620; format: cell-based, human; details: 50% growth inhibition
Protocol: as §1, §2, §3, §4

[3] = system: PC3 cells; test: MTT assay, PC3; format: cell-based; details: Homo sapiens, PC-3, 72 h, 50% growth inhibition
Protocol: as §1, §2, §3, §4

[4] = system: K-562 cells; test: MTT assay, K562; format: cell-based, human; details: 50% growth inhibition
Protocol: as §1, §2, §3, §4

[5] = system: HaCaT cells; test: MTT assay, HaCaT normal cells; format: cell-based, human; details: 72 h
Protocol: as §1, §2, §3, §4

[6] = system: SW480, SW620, PC3, K-562 cells; test: MTT assay, summary over cancer cell lines; format: cell-based; details: Homo sapiens, 72 h, depending on the tumor line, read-out: IC50 (range or bound over cancer cell lines)
Protocol: as §1, §3, §4

SMILES	IC50 ([1]; Homo sapiens, SW480, 72 h)	IC50 ([2]; Homo sapiens, SW-620, 72 h)	IC50 [3]	IC50 ([4]; Homo sapiens, K562, 72 h)	IC50 [6]	melting point	IC50 ([5]; Homo sapiens, HaCaT)	IC50 ([1]; 72 h)	IC50 ([2]; 72 h)	IC50 ([4]; 72 h)	IC50 [5]
N.N.[Cl][Pt][Cl] [Cisplatin, reference compound]	–	–	–	–	–	–	–	10.4 ± 0.9 µM	6.7 ± 1.1 µM	8.2 ± 4.08 µM	6.3 ± 0.7 µM
FC(F)(F)c1cccc(NC(=S)Nc2cccc(Cl)c2Cl)c1 [Compound 4, 1-(2,3-dichlorophenyl)-3-[3-(trifluoromethyl)phenyl]thiourea]	22.5 ± 0.1 µM	14 ± 1.73 µM	10.5 ± 2.52 µM	35.9 ± 0.07 µM	≤ 10 µM	–	13.9 ± 1.7 µM	–	–	–	–
FC(F)(F)c1cccc(NC(=S)Nc2ccccc2C(F)(F)F)c1 [Compound 7, 1-[2-(trifluoromethyl)phenyl]-3-[3-(trifluoromethyl)phenyl]thiourea]	> 100 µM	30.1 ± 9.74 µM	17.1 ± 0.57 µM	76.5 ± 4.57 µM	–	173 to 175 °C	65.7 ± 3.83 µM	–	–	–	–
N#Cc1ccc(NC(=S)Nc2cccc(C(F)(F)F)c2)cc1 [Compound 10, 1-(4-cyanophenyl)-3-[3-(trifluoromethyl)-phenyl]thiourea]	20.6 ± 3.59 µM	18.7 ± 5.92 µM	66.2 ± 4.47 µM	10.2 to 12.9 µM	–	–	50.1 ± 4.89 µM	–	–	12.9 ± 4.33 µM	–

The next lines start with results.

IC50 ([1]; Homo sapiens, SW480, 72 h)	IC50 ([2]; Homo sapiens, SW-620, 72 h)	IC50 [3]	IC50 ([4]; Homo sapiens, K562, 72 h)	IC50 [6]	melting point	SMILES	IC50 ([5]; Homo sapiens, HaCaT)	IC50 ([1]; 72 h)	IC50 ([2]; 72 h)	IC50 ([4]; 72 h)	IC50 [5]
25.3 ± 8.53 µM	38.2 ± 3.1 µM	26.7 ± 3.95 µM	23.8 ± 0.45 µM	23.8 to 38.2 µM	–	FC(F)(F)c1cccc(NC(=S)NCCc2ccccc2)c1 [Compound 12, 1-(2-phenylethyl)-3-[3-(trifluoromethyl)-phenyl]thiourea]	55.4 ± 1.08 µM	–	–	–	–
0.8 ± 0.1 µM	0.3 ± 0.08 µM	0.3 ± 0.12 µM	0.2 ± 0.1 µM	–	–	COc1cccc2c1C(=O)c1c(O)c3c(c(O)c1C2=O)C[C@@](O)(C(=O)CO)C[C@@H]3O[C@H]1C[C@H](N)[C@H](O)[C@H](C)O1 [Doxorubicin, reference compound]	0.3 ± 0.11 µM	–	–	–	–
41.5 ± 4.46 µM	16.2 ± 4.08 µM	76.6 ± 4.7 µM	74.2 ± 6.82 µM	–	–	FC(F)(F)c1cccc(NC(=S)Nc2ccc(Br)cc2)c1 [Compound 11, 1-(4-bromophenyl)-3-[3-(trifluoromethyl)phenyl]thiourea]	17.2 ± 0.64 µM	–	–	–	–
7.3 ± 0.89 µM	23.2 ± 4.07 µM	51.8 ± 3.19 µM	52.5 ± 2.14 µM	≤ 10 µM	163 to 165 °C	Cc1c(Cl)cccc1NC(=S)Nc1cccc(C(F)(F)F)c1 [Compound 5, 1-(3-chloro-2-methylphenyl)-3-[3-(trifluoromethyl)phenyl]thiourea]	55.6 ± 1.74 µM	–	–	–	–
12.7 to 15.6 µM	22.1 ± 4.36 µM	65.9 ± 10.5 µM	40.3 ± 3.88 µM	–	–	Cc1ccc(Cl)cc1NC(=S)Nc1cccc(C(F)(F)F)c1 [Compound 6, 1-(5-chloro-2-methylphenyl)-3-[3-(trifluoromethyl)phenyl]thiourea]	14.5 ± 1.08 µM	15.6 ± 4.1 µM	–	–	–

From PMC8623398, “Investigation of the Mechanisms of Cytotoxic Activity of 1,3-Disubstituted Thiourea Derivatives” (Pharmaceuticals, 2021)
